The values that follow come from ChEMBL document CHEMBL6120940, “Discovery of N-Aryl-N'-[4-(aryloxy)cyclohexyl]squaramide-Based Inhibitors of LXR/SREBP-1c Signaling Pathway Ameliorating Steatotic Liver Disease: Navigating the Role of SIRT6 Activation” (J Med Chem, 2024).

What is called AUC(0-t) is the area under the concentration-time curve up to a stated or last time point. A higher AUC(0-t) goes with more exposure. By IC50 is commonly meant the midpoint of a concentration-inhibition curve. High values mean lower potency, low ones higher potency. A word on the Cmax: it is the peak of the concentration-time curve.

Data set [1] in a line: Downregulation of SREBP-1c mRNA expression in human HepG2 cells at 10 uM pretreated with compound for 30 mins followed by T0901317 addition and measured after 12 hrs by RT-qPCR analysis relative to control. It is filed as functional. Conditions: time 12.5 hrs. In general terms: Quantitative PCR measures a nucleic acid by following its amplification.
Data set [2] is described as follows: AUC last in 16 hrs fasted ICR mouse at 20 mg/kg, po measured upto 8 hrs by LC-MS/MS analysis. Particulars: in vivo. It counts as ADME, organism-based.
A short description of data set [3]: Stability in human plasma measured after 120 mins by LC-MS/MS analysis. It is filed as ADME, cell-free. Conditions: read-out: Stability.
Data set [4] can be described thus: Stability in rat plasma measured after 120 mins by LC-MS/MS analysis. It is filed as ADME, cell-free. Particulars: read-out: Stability.
Data set [5] has as its target Voltage-gated inwardly rectifying potassium channel KCNH2 (Homo sapiens, UniProt Q12809). The experiment in a line: Inhibition of human ERG expressing HEK cells by whole-cell patch clamp assay. It is filed as toxicity, cell-based.
Data set [6] can be described thus: Terminal half life in 16 hrs fasted ICR mouse at 2 mg/kg, iv measured upto 8 hrs by LC-MS/MS analysis. It counts as ADME, organism-based. Particulars: in vivo, read-out: beta t1/2 (converted).
A short description of data set [7]: Volume of distribution at steady state in 16 hrs fasted ICR mouse at 2 mg/kg, iv measured upto 8 hrs by LC-MS/MS analysis. It counts as ADME, organism-based. Particulars: in vivo, read-out: Vdss.
Data set [8] in a line: Cmax in 16 hrs fasted ICR mouse at 20 mg/kg, po measured upto 8 hrs by LC-MS/MS analysis. It counts as ADME, organism-based. Particulars: in vivo.
Data set [9] relates to HepG2. The data set is described as follows: Downregulation of ACACA gene expression in human HepG2 cells in presence of T0901317 by RNA sequencing analysis. It is filed as functional, cell-based.
The test system of data set [10] is HepG2. The experiment in a line: Downregulation of FASN gene expression in human HepG2 cells in presence of T0901317 by RNA sequencing analysis. It counts as functional, cell-based.
The subject of data set [11] is HepG2. The experiment in a line: Downregulation of SREBP-1c expression level in human HepG2 cells at 10 uM pretreated with compound for 30 mins followed by T0901317 addition and measured after 12 hrs by immunocytochemical analysis. It is filed as functional, cell-based. Conditions: time 12.5 hrs.
Data set [12] deals with T1, Sterol regulatory element-binding protein 1 (Homo sapiens) (UniProt P36956).
T1 sequence (whole entry): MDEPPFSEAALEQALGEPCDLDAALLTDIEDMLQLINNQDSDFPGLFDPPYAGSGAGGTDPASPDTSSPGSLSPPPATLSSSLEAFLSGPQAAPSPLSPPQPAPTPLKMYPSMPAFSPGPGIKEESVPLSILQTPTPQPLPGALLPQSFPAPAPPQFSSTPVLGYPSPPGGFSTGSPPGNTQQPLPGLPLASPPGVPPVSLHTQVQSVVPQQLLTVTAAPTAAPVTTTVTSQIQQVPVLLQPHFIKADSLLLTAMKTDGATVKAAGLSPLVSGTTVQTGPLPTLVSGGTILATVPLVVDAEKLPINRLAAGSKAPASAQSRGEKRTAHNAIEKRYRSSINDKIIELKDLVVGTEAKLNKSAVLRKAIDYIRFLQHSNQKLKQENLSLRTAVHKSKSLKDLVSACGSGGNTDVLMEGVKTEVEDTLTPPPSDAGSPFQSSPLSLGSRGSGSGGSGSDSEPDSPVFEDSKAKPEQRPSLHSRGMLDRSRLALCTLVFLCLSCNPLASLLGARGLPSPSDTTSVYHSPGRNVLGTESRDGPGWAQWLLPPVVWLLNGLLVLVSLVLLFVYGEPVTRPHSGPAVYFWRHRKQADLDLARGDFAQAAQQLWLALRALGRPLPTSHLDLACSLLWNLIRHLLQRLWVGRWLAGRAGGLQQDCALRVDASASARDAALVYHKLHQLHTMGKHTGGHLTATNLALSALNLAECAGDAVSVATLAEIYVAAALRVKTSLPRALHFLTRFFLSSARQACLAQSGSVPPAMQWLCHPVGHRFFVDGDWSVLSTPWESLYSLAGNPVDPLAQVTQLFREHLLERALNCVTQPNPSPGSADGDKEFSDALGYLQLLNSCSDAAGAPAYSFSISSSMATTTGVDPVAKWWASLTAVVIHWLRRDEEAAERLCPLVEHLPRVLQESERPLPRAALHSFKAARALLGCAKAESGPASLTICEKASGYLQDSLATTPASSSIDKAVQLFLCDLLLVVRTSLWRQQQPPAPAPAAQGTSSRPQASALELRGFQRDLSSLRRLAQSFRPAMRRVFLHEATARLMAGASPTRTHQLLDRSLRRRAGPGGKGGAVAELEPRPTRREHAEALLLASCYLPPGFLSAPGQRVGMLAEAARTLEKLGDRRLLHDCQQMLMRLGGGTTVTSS
The experiment in a line: Inhibition of SREBP-1c transcriptional activity in HEK293 cells expressing LXRalpha/RXRalpha assessed as reduction in SRE-luciferase level pretreated with compound for 30 mins followed by T0901317 addition and measured after 12 hrs by Dual-Glo luciferase assay. It counts as cell-based. Particulars: dose 2.5-5 µM, time 12.5 hrs.

Data set [13] deals with HepG2. The experiment in a line: Downregulation of SCD mRNA level in human HepG2 cells at 10 uM pretreated with compound for 30 mins followed by T0901317 addition and measured after 12 hrs by RT-qPCR analysis. It is filed as functional, cell-based. Particulars: time 12.5 hrs.
For another data set, the system named is Hepatocyte. The data set is described as follows: Inhibition of LXR-induced fat accumulation in mouse Hepatocyte at 10 uM incubated for 30 mins followed by T0901317 addition by Oil red O staining based analysis. It is filed as functional, cell-based.
The subject of data set [14] is HepG2. The data set is described as follows: Lipid lowering effect on palmitic acid induced lipid accumulation in human HepG2 cells at 5 uM incubated for 30 mins by Oil red O staining based analysis. It counts as functional, cell-based.
Data set [15] deals with Mus musculus. The data set is described as follows: Anti-lipogenic activity against high fat died induced male C57BL/6J mouse obesity model assessed as reduction AST level in serum at 15 mg/kg, po administered three times per week and measured for 5 weeks. It is filed as functional, organism-based.
Data set [16] deals with Mus musculus. The data set is described as follows: Anti-lipogenic activity against high fat died induced male C57BL/6J mouse obesity model assessed as reduction in lipid droplet formation at 15 mg/kg, po administered three times per week and measured for 5 weeks by H and E staining based analysis. It counts as functional, organism-based.
The test system of data set [17] is Mus musculus. The experiment in a line: Anti-lipogenic activity against high fat died induced male C57BL/6J mouse obesity model assessed as downregulation of Ccl2 mRNA level at 15 mg/kg, po administered three times per week and measured after 5 weeks by RT-qPCT analysis. It counts as functional, organism-based.

SMILES strings stand for the structures. The source made the active and inactive calls. The calls are words filed in the database; no cut-off is given here.

Sequence of Voltage-gated inwardly rectifying potassium channel KCNH2 (Q12809 whole entry): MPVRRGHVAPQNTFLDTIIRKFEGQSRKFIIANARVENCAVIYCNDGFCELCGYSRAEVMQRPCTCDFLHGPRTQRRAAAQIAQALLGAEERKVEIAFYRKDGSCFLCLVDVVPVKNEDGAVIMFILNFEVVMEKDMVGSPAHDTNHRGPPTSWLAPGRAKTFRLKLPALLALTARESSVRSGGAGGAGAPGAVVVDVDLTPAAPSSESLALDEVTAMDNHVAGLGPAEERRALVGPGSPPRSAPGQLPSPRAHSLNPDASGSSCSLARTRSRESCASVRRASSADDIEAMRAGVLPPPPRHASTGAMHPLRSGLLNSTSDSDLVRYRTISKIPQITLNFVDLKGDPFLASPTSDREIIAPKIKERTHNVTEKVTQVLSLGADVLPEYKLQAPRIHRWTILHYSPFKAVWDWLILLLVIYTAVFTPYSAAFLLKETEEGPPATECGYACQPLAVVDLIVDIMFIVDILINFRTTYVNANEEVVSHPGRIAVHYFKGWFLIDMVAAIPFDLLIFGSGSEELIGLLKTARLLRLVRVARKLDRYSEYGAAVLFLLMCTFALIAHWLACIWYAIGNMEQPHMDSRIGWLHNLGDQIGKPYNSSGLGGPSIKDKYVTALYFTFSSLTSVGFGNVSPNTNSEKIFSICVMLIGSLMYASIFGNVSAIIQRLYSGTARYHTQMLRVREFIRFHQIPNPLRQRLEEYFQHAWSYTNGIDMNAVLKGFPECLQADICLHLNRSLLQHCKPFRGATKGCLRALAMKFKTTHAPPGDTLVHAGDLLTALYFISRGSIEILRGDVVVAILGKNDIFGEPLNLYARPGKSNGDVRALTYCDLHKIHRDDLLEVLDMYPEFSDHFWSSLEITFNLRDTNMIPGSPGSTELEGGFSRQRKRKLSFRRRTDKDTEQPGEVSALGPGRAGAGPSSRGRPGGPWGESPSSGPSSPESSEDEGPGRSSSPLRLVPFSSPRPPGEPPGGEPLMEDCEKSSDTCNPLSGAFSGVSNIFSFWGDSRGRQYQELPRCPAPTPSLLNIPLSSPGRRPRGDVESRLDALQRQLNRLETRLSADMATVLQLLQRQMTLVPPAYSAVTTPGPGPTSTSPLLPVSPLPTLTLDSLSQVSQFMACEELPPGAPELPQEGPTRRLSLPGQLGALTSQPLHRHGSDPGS

In the case of `COc1ccccc1Nc1c(N[C@H]2CC[C@H](Oc3ccc([N+](=O)[O-])cc3)CC2)c(=O)c1=O`, in data set [1], the Activity stood at 16.2%. Further, the AUC(0-t) at 8 h in [2] was 2820 ng·h/mL. Further, the remaining at 2 h worked out at 94.6% in data set [3] and 96.2% in data set [4]. In data set [5], this compound came in with an IC50 of 33.2 µM. The half-life in data set [6] was 84 min. In data set [7], the Vd is 1.1 L/kg. In data set [8], this compound gave a Cmax of 2300 ng/mL. Further, the outcome in the data set with HepG2 [9], in the data set with HepG2 [10], with HepG2 [11], with HepG2 [13], with HepG2 [14] and in the data set on Mus musculus [15] was Active. Further, the result in the data set with Mus musculus [16] and in the data set on Mus musculus [17] was Active. Also, the inhibition result in data set [12] is “Dose-dependent-effect”. Further, in the data set with Hepatocyte, the inhibition entry is “Active”.
